Results from patent US10919902B2, “Hetero-halo inhibitors of histone deacetylase” (Alkermes, Inc., priority 2015, dated 2021).

The compounds below were run against recombinant human HDACs (Homo sapiens) (assay: HDAC enzymatic assay). Settings: 5 nM HDAC enzyme, 5 h pre-incubation, 17 h reaction at 25° C.; isoform not given; read-out: IC50.
Type: biochemical
Description: All recombinant human HDACs were purchased from BPS Bioscience. The substrate, FAM-TSRHK(AC)KL-CONH, was synthesized at NanoSyn. Final assay reactions contained 100 mM HEPES (pH 7.5), 50 mM KCl, 0.1% BSA, 0.01% Triton X-100, 1% DMSO, 1 uM substrate and 5 nM HDAC enzyme. Enzyme and compounds were pre-incubated at 25° C. for 5 hours and reactions were initiated by addition of substrate. 10 uL reactions were incubated for 17 hours at 25° C. and terminated by the addition of 40 uL of buffer containing 100 mM HEPES (pH 7.5), 0.1% BSA, 0.01% Triton X-100 and 0.05% SDS. Substrate and product peptides present in each sample were separated electrophoretically using the LabChip 3000 capillary electrophoresis instrument. Change in the relative fluorescence intensity of the substrate and product peaks reflects enzyme activity. Reaction progress was determined as the product to sum ratio (PSR):P/(S+P), where P is the peak height of the product peptide and S is the peak height of the substrate peptide. Reactions were performed in duplicate at 12 concentrations, (3× serial dilutions starting at 30 uM). IC50 values were calculated using a 4 Parameter Logistic Model.

IC50 [nM]	Compound
> 5000	CC(=O)N1CCC(C(=O)Nc2nc(-c3ccccc3)ccc2N)CC1 [Compound 380]
> 5000	COc1cccc(CN2CCCC3(CCN(C(=O)Nc4nc(-c5ccc(F)cc5)ccc4N)C3)C2)c1 (stereo not drawn) [Compound 222]
500 to 5000	Nc1ccc(-c2ccccc2)nc1NC(=O)c1cn2c(n1)CNCC2 [Compound 208]
100 to 500	COc1cc2c(cn1)CN(C(=O)Nc1nc(-c3ccc(F)cc3)ccc1N)C2 [Compound 260]
500 to 5000	Nc1ccc(-c2ccc(F)cc2)nc1NC(=O)N1CCC(C(F)(F)F)C1 (stereo not drawn) [Compound 390]
500 to 5000	CN1CC(N2CC3CN(C(=O)Nc4nc(-c5ccc(F)cc5)ccc4N)CC3C2)C1 (stereo not drawn) [Compound 152]
> 5000	CC(=O)N1CCN(C(=O)Nc2nn(-c3ccccc3)cc2N)CC1 [Compound 360]
100 to 500	CN1CCN(Cc2ccc3c(c2)CN(C(=O)Nc2nc(-c4ccc(F)cc4)ccc2N)C3)CC1 [Compound 367]
100 to 500	CN1CCC(c2cnc3c(c2)CN(C(=O)Nc2nc(-c4cccs4)ccc2N)C3)CC1 [Compound 250]
> 5000	CN(C1COC1)[C@H]1[C@@H]2CN(C(=O)Nc3nc(-c4ccc(F)cc4)ccc3N)C[C@@H]21 [Compound 262]
500 to 5000	Cn1ncc2c1CN(C(=O)Nc1nc(-c3ccc(F)cc3)ccc1N)C2 [Compound 258]
> 5000	Nc1ccc(-c2ccccc2)nc1NC(=O)C1CCN(Cc2ccccc2F)CC1 [Compound 379]
500 to 5000	Nc1ccc(-c2ccc(F)cc2)nc1NC(=O)N1Cc2cc(CN3CC(F)(F)C3)cnc2C1 [Compound 266]
> 5000	COCC1CCN(C(=O)Nc2nc(-c3ccc(F)cc3)ccc2N)C1 (stereo not drawn) [Compound 389]
500 to 5000	CN1CCC(N2CC3CN(C(=O)Nc4nc(-c5ccc(F)cc5)ccc4N)CC3C2)CC1 (stereo not drawn) [Compound 169]
> 5000	Nc1ccc(-c2ccco2)nc1NC(=O)N1CC2CN(Cc3ccccc3F)CC2C1 (stereo not drawn) [Compound 175]
100 to 500	CN1CCN(Cc2cnc3c(c2)CN(C(=O)Nc2nc(-c4ccc(F)cc4)ccc2N)C3)CC1 [Compound 168]
> 5000	CN1CC(n2ncc3c2CN(C(=O)Nc2nc(-c4ccc(F)cc4)ccc2N)C3)C1 [Compound 246]
> 5000	Nc1ccc(-c2cccnc2)nc1NC(=O)N1CCC2(CCCNC2)C1 (stereo not drawn) [Compound 171]
100 to 500	Nc1ccc(-c2cccs2)nc1NC(=O)N1Cc2cc(CN3CCCC3)cnc2C1 [Compound 144]
> 5000	CN1CCC(C(=O)Nc2nn(-c3ccccc3)cc2N)CC1 [Compound 354]
> 5000	Nc1cn(-c2ccccc2)nc1NC(=O)N1CCNCC1 [Compound 357]
100 to 500	CN1CCC(c2cc3c(cn2)CN(C(=O)Nc2nc(-c4ccc(F)cc4)ccc2N)C3)CC1 [Compound 149]
500 to 5000	Nc1ccc(-c2ccco2)nc1NC(=O)N1Cc2ccncc2C1 [Compound 372]
> 5000	Nc1ccc(-c2ccc(F)cc2)nc1NC(=O)N1CCN2CCCC2C1 (stereo not drawn) [Compound 224]
100 to 500	Nc1ccc(-c2ccc(F)cc2)nc1NC(=O)N1Cc2ccncc2C1 [Compound 373]

IC50 [nM]	Compound
> 5000	Nc1ccc(-c2ccco2)nc1NC(=O)C1CN(c2ccccn2)C1 [Compound 193]
> 5000	Nc1ccc(-c2cccnc2)nc1NC(=O)N1Cc2ccc(CO)cc2C1 [Compound 395]
> 5000	Nc1ccc(-c2ccco2)nc1NC(=O)C1CN(Cc2ccccc2)C1 [Compound 198]
100 to 500	Nc1ccc(-c2ccc(F)cc2)nc1NC(=O)N1Cc2cccc(F)c2C1 [Compound 259]
500 to 5000	Nc1ccc(-c2ccc(F)cc2)nc1NC(=O)N1CCC(F)(F)C1 [Compound 364]
500 to 5000	CN(C1COC1)C1CC2CN(C(=O)Nc3nc(-c4ccc(F)cc4)ccc3N)CC2C1 (stereo not drawn) [Compound 248]
500 to 5000	COc1ccc(-c2ccc(N)c(NC(=O)N3Cc4cc(F)cnc4C3)n2)cc1 [Compound 187]
> 5000	Nc1ccc(-c2ccccc2)nc1NC(=O)C1CN(c2ccccn2)C1 [Compound 195]
> 5000	CC(=O)N1CCN(CC(=O)Nc2nc(-c3ccccc3)ccc2N)CC1 [Compound 196]
100 to 500	Nc1ccc(-c2ccc(F)cc2)nc1NC(=O)N1Cc2cc(C3CC3)cnc2C1 [Compound 255]
> 5000	Nc1ccc(-c2ccc(F)cc2)nc1NC(=O)N1Cc2cccc(N3CCCC3)c2C1 [Compound 249]
100 to 500	CN(C)Cc1cnc2c(c1)CN(C(=O)Nc1nc(-c3ccc(F)cc3)ccc1N)C2 [Compound 154]
> 5000	Nc1cn(-c2ccccc2)nc1NC(=O)N1CCN(C2COC2)CC1 [Compound 356]
> 5000	Nc1ccc(-c2ccccc2)nc1NC(=O)N1CC2CN(C3COC3)CC2C1 (stereo not drawn) [Compound 199]
500 to 5000	Nc1ccc(-c2ccc(F)cc2)nc1NC(=O)N1CC2COCC2C1 (stereo not drawn) [Compound 392]
> 5000	Nc1ccc(-n2cccn2)nc1NC(=O)C1CCN(Cc2ccccc2F)CC1 [Compound 370]
100 to 500	CN(C)Cc1ccc(C2CN(C(=O)Nc3nc(-c4ccc(F)cc4)ccc3N)C2)cc1 [Compound 146]
500 to 5000	Nc1ccc(-c2ccc(F)cc2)nc1NC(=O)N1Cc2cc(F)cnc2C1 [Compound 186]
500 to 5000	CN1CCN(c2ccc3c(c2)CN(C(=O)Nc2nn(-c4ccccc4)cc2N)C3)CC1 [Compound 352]
500 to 5000	Nc1cn(-c2ccccc2)nc1NC(=O)N1Cc2ccc(CO)cc2C1 [Compound 350]
500 to 5000	COC1CCN(C(=O)Nc2nc(-c3ccc(F)cc3)ccc2N)C1 (stereo not drawn) [Compound 388]
> 5000	Cn1cc(CN2CCCC3(CCC(C(=O)Nc4nc(-c5ccc(F)cc5)ccc4N)C3)C2)cn1 (stereo not drawn) [Compound 223]
100 to 500	Nc1ccc(-c2ccc(F)cc2)nc1NC(=O)N1Cc2ccc(CN3CCCC3)cc2C1 [Compound 405]
500 to 5000	Nc1ccc(-c2ccc(F)cc2)nc1NC(=O)N1Cc2cncnc2C1 [Compound 277]
100 to 500	CN(C)Cc1cnc2c(c1)CN(C(=O)Nc1nc(-c3cccs3)ccc1N)C2 [Compound 145]
> 5000	CN1CCC2(CC1)CCN(C(=O)Nc1nc(-c3cccnc3)ccc1N)C2 [Compound 210]

IC50 [nM]	Compound
> 5000	Nc1ccc(-c2ccccc2)nc1NC(=O)N1CCn2cncc2C1 [Compound 212]
100 to 500	Nc1ccc(-c2ccc(F)cc2)nc1NC(=O)N1Cc2cccnc2C1 [Compound 397]
500 to 5000	Nc1ccc(-c2ccc(OC(F)F)cc2)nc1NC(=O)N1CCCC1 [Compound 232]
> 5000	CN1CC(CN2C[C@@H]3[C@H](C2)[C@H]3C(=O)Nc2nc(-c3ccc(F)cc3)ccc2N)C1 [Compound 268]
100 to 500	Nc1ccc(-c2ccc(F)cc2)nc1NC(=O)N1Cc2cc(N3CCC3)cnc2C1 [Compound 157]
> 5000	Nc1ccc(-c2cccnc2)nc1NC(=O)C1CCN(Cc2ccccc2F)CC1 [Compound 378]
100 to 500	CN1CC(Cn2cc3c(n2)CN(C(=O)Nc2nc(-c4ccc(F)cc4)ccc2N)C3)C1 [Compound 245]
100 to 500	Nc1ccc(-c2ccc(F)cc2)nc1NC(=O)N1Cc2cc(CN3CCC(F)(F)C3)cnc2C1 [Compound 273]
100 to 500	Nc1ccc(-c2cccs2)nc1NC(=O)N1Cc2ccc(CN3CCCC3)cc2C1 [Compound 410]
500 to 5000	CN1CCC(c2cnc3c(c2)CN(C(=O)Nc2nc(-c4cccnc4)ccc2N)C3)CC1 [Compound 265]
500 to 5000	Nc1ccc(-c2ccc(F)cc2)nc1NC(=O)N1CC2CN(Cc3ccccc3F)CC2C1 (stereo not drawn) [Compound 176]
> 5000	CN1CC(CC(=O)Nc2nc(-c3ccc(F)cc3)ccc2N)C1 [Compound 376]
> 5000	Nc1ccc(-c2ccc(F)cc2)nc1NC(=O)N1CC2CCC(C1)O2 [Compound 406]
500 to 5000	Nc1ccc(-c2ccc(F)cc2)nc1NC(=O)N1CC2CC(N3CC(F)C3)CC2C1 (stereo not drawn) [Compound 188]
> 5000	CN(C1CCOC1)C1CC2CN(C(=O)Nc3nc(-c4ccc(F)cc4)ccc3N)CC2C1 (stereo not drawn) [Compound 237]
> 5000	Nc1ccc(-c2ccc(F)cc2)nc1NC(=O)N1C[C@@H]2[C@H](C1)[C@H]2NC1COC1 [Compound 267]
500 to 5000	CN1CCn2cc(C(=O)Nc3nc(-c4ccccc4)ccc3N)nc2C1 [Compound 206]
100 to 500	Cc1cc2c(cn1)CN(C(=O)Nc1nc(-c3ccc(F)cc3)ccc1N)C2 [Compound 151]
500 to 5000	Cc1ccc(C2CN(C(=O)Nc3nc(-c4ccc(F)cc4)ccc3N)C2)cc1 [Compound 170]
> 5000	Nc1ccc(-n2cccn2)nc1NC(=O)N1CC2CN(Cc3ccccc3F)CC2C1 (stereo not drawn) [Compound 177]
> 5000	Nc1cn(-c2ccccc2)nc1NC(=O)N1CC2CCCC2C1 (stereo not drawn) [Compound 384]
100 to 500	CC(O)c1ccc2c(c1)CN(C(=O)Nc1nc(-c3ccc(F)cc3)ccc1N)C2 (stereo not drawn) [Compound 394]
> 5000	CN1CCCC2(CCN(C(=O)Nc3nc(-c4cccnc4)ccc3N)C2)C1 (stereo not drawn) [Compound 211]
500 to 5000	CN1CCN(C2CC3CN(C(=O)Nc4nc(-c5ccc(F)cc5)ccc4N)CC3C2)CC1 (stereo not drawn) [Compound 179]
> 5000	Nc1ccc(-c2ccc(F)cc2)nc1NC(=O)C1CN(c2ccccn2)C1 [Compound 192]
> 5000	CN1CC(N2C[C@@H]3C(C(=O)Nc4nc(-c5ccc(F)cc5)ccc4N)[C@@H]3C2)C1 (stereo partly drawn) [Compound 241]
